Tests used:
GTPase KRas [1] = molecular target: T1, GTPase KRas (Homo sapiens, UniProt P01116, G12C); experiment: Inhibition of BODIPY loaded KRAS G12C mutant (unknown origin) assessed as inhibition of GDP-GTP exchange rate in presence of SOS1/GppNHp incubated for 2 hr by BODIPY fluorescence assay
GTPase KRas [2] = molecular target: T1, GTPase KRas; experiment: Inhibition of KRAS G12C mutant in human MIA PaCa-2 cells assessed as reduction in ERK phosphorylation incubated for 2 to 4 hrs by HTRF assay; type: cell-based

T1 sequence (P01116 whole entry G12C): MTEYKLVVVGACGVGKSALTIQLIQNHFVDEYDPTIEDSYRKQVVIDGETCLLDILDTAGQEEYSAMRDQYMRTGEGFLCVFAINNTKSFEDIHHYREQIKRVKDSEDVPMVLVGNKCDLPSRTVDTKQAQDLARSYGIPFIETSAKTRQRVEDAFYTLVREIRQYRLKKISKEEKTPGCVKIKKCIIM

| Structure (SMILES) | IC50 (GTPase KRas [1]) [nM] | IC50 (GTPase KRas [2]) [nM] | IC50 (GTPase KRas [2]; mia paca-2) [nM] |
| --- | --- | --- | --- |
| C=Cc1ncc2n1CCN(c1nc(OCCN3CCOCC3)nc3c(F)c(-c4cc(O)cc5ccccc45)c(Cl)cc13)C2 | 100 | 5000 | – |
| C=Cc1ncc2n1CCN(c1nc(=O)n(-c3c(C)ccnc3C(C)C)c3nc(-c4c(O)cccc4F)c(F)cc13)C2 | 100 | 5000 | 5000 |
| C=Cc1ncc2n1CCN(c1nc(OCC3CCCN3C)nc3c(F)c(-c4c(C)ccc5[nH]ncc45)c(Cl)cc13)C2 (stereo not drawn) | 100 | 5000 | – |
| C=Cc1ncc2n1CCN(c1nc(OC3CCCN(C)C3)nc3c(F)c(-c4cc(O)cc5ccccc45)c(Cl)cc13)C2 (stereo not drawn) | 100 | 5000 | – |
| C=Cc1ncc2n1CCN(c1nc(OC3CCN(C)CC3)nc3c(F)c(-c4cc(O)cc5ccccc45)c(Cl)cc13)C2 | 100 | 5000 | – |
| C=Cc1ncc2n1CCN(c1nc(OCC3CCCN3C)nc3c(F)c(-c4c(O)cccc4F)c(Cl)cc13)C2 (stereo not drawn) | 100 | 5000 | – |
| C=Cc1ncc2n1CCN(c1nc(OC[C@@H]3CCCN3C)nc3c(F)c(-c4cc(O)cc5ccccc45)c(Cl)cc13)C2 | 100 | 1000 | – |
| C=Cc1ncc2n1CCN(c1nc(=O)n(C(C)C)c3nc(-c4c(O)cccc4F)c(F)cc13)C2 | 100 | 5000 | – |
| C=Cc1ncc2n1CCN(c1nc(OCC3CCCN3C)nc3c(F)c(-c4cc(O)cc5ccccc45)c(Cl)cc13)C2 (stereo not drawn) | ≤ 100 | 1000 | – |
| C=Cc1ncc2n1CCN(c1nc(=O)n(CC3CC3)c3nc(-c4c(O)cccc4F)c(F)cc13)C2 | 100 | 5000 | – |
| C=Cc1ncc2n1CCN(c1nc(OCCN(C)C)nc3c(F)c(-c4cc(O)cc5ccccc45)c(Cl)cc13)C2 | 100 | 1000 | – |

— ChEMBL document CHEMBL5131529, “KRAS Inhibitors and Target Engagement Technology: From Undruggable to Druggable Targets in Cancer Therapeutics” (ACS Med Chem Lett, 2022)
